The assay concerns the target T1, human chemokine receptor CCR3 (Homo sapiens, UniProt P51677).
T1 construct: expressed in transfected cells; host or cells: K562 cell line (hCCR3-C1 cells), membrane preparation
T1 sequence (P51677 1-355): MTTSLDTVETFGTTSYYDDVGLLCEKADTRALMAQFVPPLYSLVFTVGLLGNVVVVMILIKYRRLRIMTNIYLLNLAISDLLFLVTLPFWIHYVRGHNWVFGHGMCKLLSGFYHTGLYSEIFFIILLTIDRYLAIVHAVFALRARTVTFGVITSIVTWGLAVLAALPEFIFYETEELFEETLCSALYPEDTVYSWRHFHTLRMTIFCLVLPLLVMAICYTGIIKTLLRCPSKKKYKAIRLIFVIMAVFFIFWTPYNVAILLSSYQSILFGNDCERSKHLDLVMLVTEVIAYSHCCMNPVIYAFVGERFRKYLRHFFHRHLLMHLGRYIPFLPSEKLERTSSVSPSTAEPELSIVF
The assay is described as follows: CCR3 receptor binding assay (SPA, 125I-eotaxin-1 displacement, hCCR3-C1 K562 cell membranes). The conditions noted are these: human Eotaxin-1 at human CCR3-Rezeptor; for inhibition at 1 µM: 1 μM test compound, read-out: CCR3 % inh @ 1 μM; for Ki: dose range 0.1 to 10000 nM. The method, boiled down:
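SPA displacement of recombinant human 125I-eotaxin-1 (30.000 dpm per well) from membranes of CCR3-transfected K562 cells (0.5-10 μg protein/well) on WGA beads. Buffer was 25 mM HEPES, 25 mM MgCl2, 1 mM CaCl2, 0.1% BSA; incubation 2 h at room temperature. Specific binding was total minus NSB (unlabelled eotaxin-1), giving % inhibition and Ki.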

With `COc1ccc(NC(=O)[C@H]2CCC(=O)N2C2CCN(Cc3ccc(Cl)c(C)c3)CC2)cc1C(=O)N(C)CCO` [Example 178], the inhibition at 1 µM is 86% and the Ki came out at 108 nM.

`COCC(NC(=O)C1CCC(=O)N1C1CCN(Cc2ccc(Cl)c(C)c2)CC1)c1nc2ccc(Cl)cc2[nH]1` (stereo not shown) [Example 67]: the inhibition at 1 µM came out at 52% and the Ki was 700 nM. Turning to `Cc1cc(CN2CCC(N3C(=O)CC[C@@H]3C(=O)Nc3ccc(N4CCCOC4=O)c(C)c3)CC2)ccc1Cl` [Example 33], the inhibition at 1 µM turned out to be 83% and the affinity, expressed as Ki, was 150 nM. As to `CNC(=O)c1cccc(NC(=O)[C@H]2CCC(=O)N2C2CCN(Cc3cc(Br)cs3)CC2)c1` [Example 207], the inhibition at 1 µM turned out to be 75% and the affinity, expressed as Ki, was 442 nM. Take `Cc1cc(C(=O)N2CCCC2)cc(NC(=O)[C@H]2CCC(=O)N2C2CCN(Cc3ccc(Cl)c(C)c3)CC2)n1` [Example 132]: the inhibition at 1 µM is 102% and the Ki was 1 nM. Regarding `Cc1cc(CN2CCC(N3C(=O)CC[C@@H]3C(=O)Nc3cc(-c4nc[nH]n4)ccn3)CC2)ccc1Cl` [Example 211], the inhibition at 1 µM worked out at 93% and the affinity corresponds to a Ki of 48 nM. Regarding `Cc1cc(CN2CCC(N3C(=O)CC[C@@H]3C(=O)Nc3cccc(C(=O)N(C)Cc4ccco4)c3)CC2)ccc1Cl` [Example 149], the inhibition at 1 µM amounted to 99% and affinity was put at a Ki of 10 nM. With `CCN(CC)C(=O)c1cccc(NC(=O)[C@H]2CCC(=O)N2C2CCN(Cc3ccc(Cl)c(C)c3)CC2)c1` [Example 157], the inhibition at 1 µM is 99% and the Ki is 15 nM. Turning to `CNC(=O)c1cccc(NC(=O)[C@H]2CCC(=O)N2C2CCN(Cc3ccc(Br)cc3)CC2)c1` [Example 200], the inhibition at 1 µM amounted to 86% and the affinity, expressed as Ki, was 114 nM. Take `Cc1cc(CN2CCC(N3C(=O)CC[C@@H]3C(=O)N(C)c3ccccn3)CC2)ccc1Cl` [Example 103]: the inhibition at 1 µM came out at 54% and the affinity corresponds to a Ki of 1400 nM. In the case of `Cc1cc(CN2CCC(N3C(=O)CC[C@@H]3C(=O)Nc3cc(C(=O)N(C)C)cc(C4CC4)n3)CC2)ccc1Cl` [Example 214], the inhibition at 1 µM stood at 101% and the Ki turned out to be 2 nM. In the same order, the values of `Cc1cc(CN2CCC(N3C(=O)OC[C@H]3C(=O)Nc3ccc4ncsc4c3)CC2)ccc1Cl` [Example 118] are 94% and 40 nM. Regarding `Cc1cc(CN2CCC(N3C(=O)CC[C@@H]3C(=O)Nc3cc(C(=O)N4CCCC4)ccn3)CC2)ccc1Cl` [Example 139], the inhibition at 1 µM is 101% and the affinity, expressed as Ki, was 5 nM.

Regarding `Cc1cc(-c2nnnn2C)cc(NC(=O)[C@H]2CCC(=O)N2C2CCN(Cc3ccc(Cl)c(C)c3)CC2)n1` [Example 196], the inhibition at 1 µM was determined as 89% and the Ki came out at 95 nM. The matching figures for `CCS(=O)(=O)N(CC(=O)N(C)C)c1cccc(NC(=O)[C@H]2CCC(=O)N2C2CCN(Cc3ccc(Cl)c(C)c3)CC2)c1` [Example 21]: 96% and 11 nM. With `Cc1cc(CN2CCC(N3C(=O)CC[C@H]3C(=O)NC3CCC(F)(F)CC3)CC2)ccc1Cl` [Example 48], the inhibition at 1 µM turned out to be 40% and affinity was put at a Ki of 965 nM. Consider `Cc1cc(CN2CCC(N3C(=O)N(C)C[C@@H]3C(=O)Nc3cccc(-c4ccncc4)c3)CC2)ccc1Cl` [Example 120], for which the inhibition at 1 µM was determined as 95% and the Ki stood at 35 nM. In the same order, the values of `Cc1cc(CN2C3CCC2CC(N2C(=O)CC[C@@H]2C(=O)Nc2cccc(C(N)=O)c2)C3)ccc1Cl` (stereo partly shown) [Example 81] are 89% and 111 nM. In the same order, the values of `Cc1cc(CN2CCC(N3C(=O)CC[C@H]3C(=O)NC3CCN(S(C)(=O)=O)C3)CC2)ccc1Cl` (stereo partly shown) [Example 53] are 33% and 2010 nM.

In the case of `CNC(=O)c1cc(NC(=O)[C@H]2CCC(=O)N2C2CCN(Cc3ccc(Cl)c(C)c3)CC2)ccc1OC` [Example 180], the inhibition at 1 µM is 97% and the Ki was 16 nM. Take `Cc1cc(CN2CCC(N3C(=O)N(C)C[C@H]3C(=O)Nc3cc(C4CC4)nn3C)CC2)ccc1Cl` [Example 209]: the inhibition at 1 µM was 95% and the Ki turned out to be 33 nM. Consider `Cc1nc(C2(NC(=O)[C@@H]3CCC(=O)N3C3CCN(Cc4ccc(Cl)c(C)c4)CC3)CCCC2)no1` [Example 51], for which the inhibition at 1 µM turned out to be 30% and affinity was put at a Ki of 1620 nM. On to `Cc1cc(CN2CCC(N3C(=O)CCC3C(=O)Nc3cc(-c4c(C)noc4C)ccn3)CC2)ccc1Cl` (stereo not shown) [Example 192], for which the inhibition at 1 µM was determined as 96%. In the case of `Cc1cc(NC(=O)[C@H]2CCC(=O)N2C2CCN(Cc3ccc(Cl)c(C)c3)CC2)cc(-c2nnnn2C)c1` [Example 114], the inhibition at 1 µM is 99% and the affinity corresponds to a Ki of 4 nM. Take `CCNS(=O)(=O)c1cccc(NC(=O)[C@H]2CCC(=O)N2C2CCN(Cc3ccc(Cl)c(C)c3)CC2)c1` [Example 4]: the inhibition at 1 µM was 99% and the affinity corresponds to a Ki of 5 nM. As for `Cc1cc(CN2CCC(N3C(=O)OC[C@H]3C(=O)Nc3cc(C4CC4)nn3C)CC2)ccc1Cl` [Example 117], the inhibition at 1 µM worked out at 98% and the affinity, expressed as Ki, was 17 nM. Regarding `Cc1cc(CN2CCC(N3C(=O)N(C)C[C@@H]3C(=O)Nc3cc(C4CC4)nn3C)CC2)ccc1Cl` [Example 130], the inhibition at 1 µM stood at 91% and the Ki turned out to be 77 nM. In the case of `CCOC(=O)Cc1csc(NC(=O)[C@H]2CCC(=O)N2C2CCN(Cc3ccc(Cl)c(C)c3)CC2)n1` [Example 98], the inhibition at 1 µM was 75% and the Ki turned out to be 202 nM. Turning to `Cc1cc(CN2CCC(N3C(=O)CC[C@@H]3C(=O)Nc3ccc4[nH]ncc4c3)CC2)ccc1Cl` [Example 31], the inhibition at 1 µM amounted to 93% and the Ki is 50 nM. For `Cc1cc(CN2CCC(N3C(=O)CC[C@@H]3C(=O)Nc3cccc(S(=O)(=O)CCO)c3)CC2)ccc1Cl` [Example 26], the inhibition at 1 µM was 97% and the Ki was 27 nM. On to `CNC(=O)c1cccc(NC(=O)[C@H]2CN(C)C(=O)N2C2CCN(Cc3ccc(Cl)c(C)c3)CC2)c1` [Example 131], for which the inhibition at 1 µM turned out to be 89% and the Ki was determined as 85 nM. On to `CNC(=O)c1cccc(NC(=O)[C@@H]2COC(=O)N2C2CCN(Cc3ccc(Cl)c(C)c3)CC2)c1` [Example 119], for which the inhibition at 1 µM turned out to be 87% and the affinity, expressed as Ki, was 81 nM.

Take `Cc1cc(NC(=O)[C@H]2CCC(=O)N2C2CCN(Cc3ccc(Cl)c(C)c3)CC2)cc(C(=O)N(C)CCO)c1` [Example 175]: the inhibition at 1 µM was found to be 99% and the Ki was 6 nM. Take `Cc1cc(CN2CCC(N3C(=O)CC[C@H]3C(=O)N3CCc4cccc(F)c4C3)CC2)ccc1Cl` [Example 58]: the inhibition at 1 µM was 76% and the Ki stood at 221 nM.

For the compound `CCC(C)NC(=O)c1cccc(NC(=O)[C@H]2CCC(=O)N2C2CCN(Cc3ccc(Cl)c(C)c3)CC2)c1` (stereo partly shown) [Example 143], the inhibition at 1 µM turned out to be 99% and affinity was put at a Ki of 7 nM. On to `CNc1nc(-c2cccc(NC(=O)[C@H]3CN(C)C(=O)N3C3CCN(Cc4ccc(Cl)c(C)c4)CC3)c2)no1` [Example 122], for which the inhibition at 1 µM is 95% and the affinity corresponds to a Ki of 30 nM.

Regarding `Cc1cc(CN2CCC(N3C(=O)CC[C@@H]3C(=O)Nc3cccc(C(=O)NCC4CC4)c3)CC2)ccc1Cl` [Example 136], the inhibition at 1 µM turned out to be 100% and the Ki amounted to 4 nM. In the same order, the values of `COc1cc(OC)nc(CNC(=O)[C@@H]2CCC(=O)N2C2CCN(Cc3ccc(Cl)c(C)c3)CC2)n1` [Example 50] are 41% and 1290 nM. As to `CNC(=O)c1cccc(NC(=O)[C@H]2CCC(=O)N2C2CCN(Cc3ccc(Cl)c(C)c3)CC2)c1` [Example 151], the inhibition at 1 µM stood at 95% and affinity was put at a Ki of 18 nM.

For `CCC(C)N(C)C(=O)c1cccc(NC(=O)[C@H]2CCC(=O)N2C2CCN(Cc3ccc(Cl)c(C)c3)CC2)c1` (stereo partly shown) [Example 138], the inhibition at 1 µM came to 101% and the Ki came to 4 nM. `CNC(=O)c1cccc(NC(=O)[C@H]2CCC(=O)N2C2CCN(Cc3ccc(Cl)s3)CC2)c1` [Example 206]: the inhibition at 1 µM is 77% and affinity was put at a Ki of 357 nM. Consider `Cc1cc(CN2CCC(N3C(=O)CC[C@@H]3C(=O)Nc3cccc(C(=O)NCC4CCCCO4)c3)CC2)ccc1Cl` (stereo partly shown) [Example 161], for which the inhibition at 1 µM is 97% and the Ki was 20 nM. On to `Cc1cc(CN2CCC(N3C(=O)CC[C@H]3C(=O)NCc3ccccc3OC(F)F)CC2)ccc1Cl` [Example 38], for which the inhibition at 1 µM was 78% and the affinity, expressed as Ki, was 211 nM. The matching figures for `Cc1cc(CN2CCC(N3C(=O)N(C)C[C@H]3C(=O)Nc3ccno3)CC2)ccc1Cl` [Example 129]: 70% and 334 nM. With `Cc1cc(CN2CCC(N3C(=O)CC[C@@H]3C(=O)N(C)c3ccccc3)CC2)ccc1Cl` [Example 104], the inhibition at 1 µM is 24% and the affinity, expressed as Ki, was 2400 nM. Take `COC(=O)c1csc(NC(=O)[C@H]2CCC(=O)N2C2CCN(Cc3ccc(Cl)c(C)c3)CC2)n1` [Example 99]: the inhibition at 1 µM amounted to 91% and the Ki was determined as 67 nM.

As usually defined, the Ki is the equilibrium dissociation constant of an inhibitor or competing ligand from its target. Lower therefore signals higher affinity.

The values are drawn from patent US8653075B2, “Therapeutic methods employing substituted piperidines which are CCR3 antagonists” (Boehringer Ingelheim International GmbH, priority 2009, dated 2014).
